# Data: ChEMBL document CHEMBL1201862, “PubChem BioAssay data set” (2004)
# Active and inactive are the calls of the source.
# Tests used:
# [1] = target: Cytochrome P450 2C9 (Homo sapiens, UniProt P11712)
# [2] = target: Cytochrome P450 2C19 (Homo sapiens, UniProt P33261); test: Cytochrome panel assay with activity outcomes. Panel member name: p450-cyp2c19 Compounds with AC50 equal or less than 10 uM are considered active; type: functional; conditions: read-out: AC50
# [3] = target: T1, Short transient receptor potential channel 4 (Mus musculus, UniProt Q9QUQ5); test: calcium entry via TRPC4 opening agents – cell-based, HEK293 TRPC4/mu-opioid, Fluo-4 calcium, dose response (AID 434937); type: functional
# T1 sequence (Q9QUQ5 whole entry): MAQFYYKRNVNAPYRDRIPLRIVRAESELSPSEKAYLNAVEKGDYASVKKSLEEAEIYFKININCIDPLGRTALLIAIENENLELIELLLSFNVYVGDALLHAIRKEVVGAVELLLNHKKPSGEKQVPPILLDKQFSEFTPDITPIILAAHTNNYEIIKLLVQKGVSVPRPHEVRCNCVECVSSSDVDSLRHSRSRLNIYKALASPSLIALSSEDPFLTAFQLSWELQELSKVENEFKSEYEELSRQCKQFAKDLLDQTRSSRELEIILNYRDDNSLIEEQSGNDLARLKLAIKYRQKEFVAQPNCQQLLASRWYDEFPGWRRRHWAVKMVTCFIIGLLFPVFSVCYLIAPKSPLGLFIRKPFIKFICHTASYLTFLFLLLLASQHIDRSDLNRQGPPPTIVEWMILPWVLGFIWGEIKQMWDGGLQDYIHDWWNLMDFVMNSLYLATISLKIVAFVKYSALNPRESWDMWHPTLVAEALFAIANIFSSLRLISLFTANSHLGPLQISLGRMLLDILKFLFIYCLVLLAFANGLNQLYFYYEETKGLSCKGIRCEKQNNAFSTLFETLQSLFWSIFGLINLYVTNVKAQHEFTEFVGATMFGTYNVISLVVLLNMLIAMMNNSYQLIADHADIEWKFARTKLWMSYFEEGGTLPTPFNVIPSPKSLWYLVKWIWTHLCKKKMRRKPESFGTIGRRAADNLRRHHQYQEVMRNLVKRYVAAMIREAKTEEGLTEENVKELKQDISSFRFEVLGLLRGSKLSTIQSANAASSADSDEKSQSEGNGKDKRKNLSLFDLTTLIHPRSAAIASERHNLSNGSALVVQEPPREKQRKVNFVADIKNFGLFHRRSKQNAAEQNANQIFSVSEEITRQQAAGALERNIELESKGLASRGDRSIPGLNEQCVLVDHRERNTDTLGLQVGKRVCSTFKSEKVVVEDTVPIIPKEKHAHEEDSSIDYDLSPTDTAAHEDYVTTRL
# [4] = target: T2, Aminopeptidase N (Plasmodium falciparum FcB1/Columbia, UniProt O96935); test: malaria alanyl aminopeptidase activity blockers – biochemical, fluorogenic H-Leu-NHMec substrate, 1536-well (AID 1445); design: species or system Plasmodium falciparum 3D7, 3D7
# T2 sequence (O96935 whole entry): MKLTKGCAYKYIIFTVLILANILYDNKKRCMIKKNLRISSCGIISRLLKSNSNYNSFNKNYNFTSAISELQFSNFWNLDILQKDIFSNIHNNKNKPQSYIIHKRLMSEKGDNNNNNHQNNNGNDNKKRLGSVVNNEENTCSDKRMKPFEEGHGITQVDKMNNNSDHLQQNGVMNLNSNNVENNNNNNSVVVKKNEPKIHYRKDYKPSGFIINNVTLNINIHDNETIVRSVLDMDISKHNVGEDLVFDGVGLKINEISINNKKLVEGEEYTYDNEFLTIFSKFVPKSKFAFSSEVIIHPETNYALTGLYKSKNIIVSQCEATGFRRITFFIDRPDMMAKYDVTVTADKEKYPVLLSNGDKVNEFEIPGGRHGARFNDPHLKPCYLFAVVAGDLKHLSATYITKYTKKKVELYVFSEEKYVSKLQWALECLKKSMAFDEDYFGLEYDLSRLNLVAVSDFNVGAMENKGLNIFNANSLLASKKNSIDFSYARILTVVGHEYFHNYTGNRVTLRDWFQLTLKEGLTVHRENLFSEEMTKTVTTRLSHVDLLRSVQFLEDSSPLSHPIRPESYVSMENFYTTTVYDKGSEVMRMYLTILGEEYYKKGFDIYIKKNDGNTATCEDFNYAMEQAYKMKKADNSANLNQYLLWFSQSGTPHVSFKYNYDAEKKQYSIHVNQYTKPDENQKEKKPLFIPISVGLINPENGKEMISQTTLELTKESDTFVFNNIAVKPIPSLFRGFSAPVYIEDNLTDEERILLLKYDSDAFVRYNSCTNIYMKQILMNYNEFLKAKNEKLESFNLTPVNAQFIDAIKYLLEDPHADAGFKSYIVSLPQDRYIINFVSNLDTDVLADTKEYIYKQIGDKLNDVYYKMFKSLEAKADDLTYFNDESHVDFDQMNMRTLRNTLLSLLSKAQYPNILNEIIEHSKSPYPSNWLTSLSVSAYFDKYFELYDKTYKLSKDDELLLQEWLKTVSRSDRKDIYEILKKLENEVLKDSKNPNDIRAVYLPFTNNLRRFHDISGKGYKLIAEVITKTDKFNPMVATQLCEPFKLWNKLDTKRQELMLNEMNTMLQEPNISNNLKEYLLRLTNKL
# [5] = target: T3, Bcl-2-like protein 10 (Homo sapiens, UniProt Q9HD36); test: Bcl-B/TR3 peptide binding disruption – biochemical, fluorescence polarization, FITC-TR3 peptide, selectivity assay for Bfl-1 inhibitor project, primary screen (AID 748);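 further: fluorescence polarization from a fluorescein-labelled TR3 peptide binding purified Bcl-B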
# T3 sequence (Q9HD36 whole entry): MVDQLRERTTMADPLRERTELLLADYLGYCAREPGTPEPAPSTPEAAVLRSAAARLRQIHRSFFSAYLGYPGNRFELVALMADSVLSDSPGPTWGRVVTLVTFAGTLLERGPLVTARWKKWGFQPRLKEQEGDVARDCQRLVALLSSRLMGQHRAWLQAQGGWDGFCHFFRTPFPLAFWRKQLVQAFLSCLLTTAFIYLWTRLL
# [6] = target: T1, Short transient receptor potential channel 4; test: block of DAMGO-driven TRPC4 calcium entry – cell-based, HEK293 TRPC4/mu-opioid, Fluo-4 calcium, dose response (AID 434942); type: functional;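 further: potency of inhibitors blocking the TRPC4 calcium response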
# [7] = target: T4, Cytochrome P450 1A2 (Homo sapiens, UniProt P05177);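 further: PubChem cytochrome P450 panel assay, CYP1A2 panel member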
# T4 sequence (P05177 whole entry): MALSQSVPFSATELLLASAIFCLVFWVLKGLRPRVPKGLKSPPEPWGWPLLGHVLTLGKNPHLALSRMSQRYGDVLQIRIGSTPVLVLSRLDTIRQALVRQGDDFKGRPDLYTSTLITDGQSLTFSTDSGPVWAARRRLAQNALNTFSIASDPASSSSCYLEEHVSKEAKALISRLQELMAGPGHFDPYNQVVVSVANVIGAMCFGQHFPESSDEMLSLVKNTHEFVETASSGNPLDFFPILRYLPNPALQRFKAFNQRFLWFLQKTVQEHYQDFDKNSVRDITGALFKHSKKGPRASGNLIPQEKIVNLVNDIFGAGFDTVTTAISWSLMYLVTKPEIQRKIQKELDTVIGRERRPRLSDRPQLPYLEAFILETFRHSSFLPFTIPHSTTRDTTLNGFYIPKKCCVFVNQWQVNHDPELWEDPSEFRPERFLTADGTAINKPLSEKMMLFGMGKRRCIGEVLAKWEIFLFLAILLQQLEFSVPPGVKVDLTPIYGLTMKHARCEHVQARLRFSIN
# [8] = NIH-3T3 fibroblast cytotoxicity, dose response, cytotoxicity control, cell-based, fluorescence, Alamar Blue, secondary assay (AID 2327); type: functional;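 further: NIH-3T3 mouse fibroblasts cultured with fluconazole at 8 µg/mL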
# [9] = fluconazole-exposed Candida albicans growth modulators – fluorescence, retest, confirmation (AID 2467); type: functional, cell-based
# [10] = target: T5, Histone-lysine N-methyltransferase NSD2 (Homo sapiens, UniProt O96028); type: biochemical
# T5 sequence (O96028 whole entry): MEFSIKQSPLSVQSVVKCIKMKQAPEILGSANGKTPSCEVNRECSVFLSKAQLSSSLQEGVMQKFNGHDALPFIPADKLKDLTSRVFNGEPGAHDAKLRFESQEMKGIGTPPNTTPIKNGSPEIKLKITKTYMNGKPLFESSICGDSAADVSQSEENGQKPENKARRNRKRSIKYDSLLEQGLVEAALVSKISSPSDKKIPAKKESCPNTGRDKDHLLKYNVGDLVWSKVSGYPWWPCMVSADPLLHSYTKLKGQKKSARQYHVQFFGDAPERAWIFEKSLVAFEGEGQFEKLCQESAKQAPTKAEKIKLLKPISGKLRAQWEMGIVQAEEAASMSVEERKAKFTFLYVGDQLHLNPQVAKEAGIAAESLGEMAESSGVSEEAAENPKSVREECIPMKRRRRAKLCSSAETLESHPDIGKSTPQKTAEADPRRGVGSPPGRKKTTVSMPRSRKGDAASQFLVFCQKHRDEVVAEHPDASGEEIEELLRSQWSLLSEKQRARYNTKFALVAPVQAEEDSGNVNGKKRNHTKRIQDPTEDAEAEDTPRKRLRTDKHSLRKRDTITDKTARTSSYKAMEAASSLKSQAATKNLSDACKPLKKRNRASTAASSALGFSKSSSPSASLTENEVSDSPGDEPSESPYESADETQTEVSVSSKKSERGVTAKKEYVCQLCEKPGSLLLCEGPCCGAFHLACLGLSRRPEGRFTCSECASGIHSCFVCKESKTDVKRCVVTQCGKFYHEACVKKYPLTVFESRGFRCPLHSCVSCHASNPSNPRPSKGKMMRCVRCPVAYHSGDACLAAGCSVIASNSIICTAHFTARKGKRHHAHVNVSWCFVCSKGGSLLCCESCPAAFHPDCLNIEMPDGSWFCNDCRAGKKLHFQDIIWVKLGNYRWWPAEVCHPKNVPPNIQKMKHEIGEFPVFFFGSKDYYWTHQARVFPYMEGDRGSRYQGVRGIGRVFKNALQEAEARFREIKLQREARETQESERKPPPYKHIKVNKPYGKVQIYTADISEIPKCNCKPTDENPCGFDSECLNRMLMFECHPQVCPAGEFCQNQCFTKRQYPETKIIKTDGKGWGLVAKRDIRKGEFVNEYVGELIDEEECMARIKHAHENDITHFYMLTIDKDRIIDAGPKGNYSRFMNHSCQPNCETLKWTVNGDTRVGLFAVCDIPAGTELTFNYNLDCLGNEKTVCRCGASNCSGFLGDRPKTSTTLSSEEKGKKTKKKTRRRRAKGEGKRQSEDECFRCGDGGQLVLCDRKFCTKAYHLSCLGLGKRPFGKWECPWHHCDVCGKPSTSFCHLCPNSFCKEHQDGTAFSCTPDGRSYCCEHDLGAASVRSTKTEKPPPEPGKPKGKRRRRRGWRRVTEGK
# [11] = target: Glucose-6-phosphate 1-dehydrogenase (Homo sapiens, UniProt P11413); test: inhibition of Homo sapiens G6PD, dose series – biochemical, fluorescence, selectivity assay for P. falciparum G6PD inhibitor project, dose response (AID 504792); type: functional
# [12] = cells; type: functional, cell-based
# [13] = tested on: INS1; test: INS-1E survival protection against cytokine death – cell-based, luminescence, retest, dose response (AID 449756); type: functional; conditions: Rattus norvegicus;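 further: cell death triggered by IL-1 beta plus TNF-alpha plus IFN-gamma mixture; protective hits raise ATP signal compared with cytokine alone wells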
# [14] = cells; type: functional, cell-based; remark: listed apart in the source
# [15] = target: Cytochrome P450 3A4 (Homo sapiens, UniProt P08684);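 further: CYP3A4 tested as one member of a cytochrome P450 panel screen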
# Chain of Cytochrome P450 3A4 (P08684 whole entry): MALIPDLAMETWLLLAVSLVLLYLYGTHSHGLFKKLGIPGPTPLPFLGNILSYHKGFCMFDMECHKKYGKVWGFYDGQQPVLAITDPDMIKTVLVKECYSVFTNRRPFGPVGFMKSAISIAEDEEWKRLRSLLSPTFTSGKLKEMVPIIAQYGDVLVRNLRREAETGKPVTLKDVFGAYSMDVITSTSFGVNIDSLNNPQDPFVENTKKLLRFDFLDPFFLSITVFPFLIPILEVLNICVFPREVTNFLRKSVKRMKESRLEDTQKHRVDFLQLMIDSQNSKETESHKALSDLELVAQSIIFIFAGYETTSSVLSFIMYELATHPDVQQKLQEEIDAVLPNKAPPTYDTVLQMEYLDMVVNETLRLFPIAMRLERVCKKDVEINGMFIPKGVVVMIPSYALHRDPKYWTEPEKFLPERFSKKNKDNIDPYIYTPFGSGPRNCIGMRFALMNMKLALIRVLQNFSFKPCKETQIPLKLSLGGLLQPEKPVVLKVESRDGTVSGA
# Chain of Cytochrome P450 2C9 (P11712 whole entry): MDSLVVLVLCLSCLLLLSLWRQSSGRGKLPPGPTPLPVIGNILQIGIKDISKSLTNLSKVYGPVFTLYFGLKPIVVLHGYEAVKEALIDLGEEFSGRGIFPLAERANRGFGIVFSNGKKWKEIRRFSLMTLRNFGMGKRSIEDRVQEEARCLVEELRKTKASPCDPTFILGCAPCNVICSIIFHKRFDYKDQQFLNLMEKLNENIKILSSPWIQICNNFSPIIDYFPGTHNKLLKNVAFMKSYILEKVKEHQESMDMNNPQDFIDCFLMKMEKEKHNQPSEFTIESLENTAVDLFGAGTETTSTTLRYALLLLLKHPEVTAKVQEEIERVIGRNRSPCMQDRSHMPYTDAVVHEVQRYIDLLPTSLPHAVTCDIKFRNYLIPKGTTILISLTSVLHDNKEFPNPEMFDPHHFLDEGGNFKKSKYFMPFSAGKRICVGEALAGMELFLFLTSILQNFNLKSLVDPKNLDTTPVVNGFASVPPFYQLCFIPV
# Chain of Glucose-6-phosphate 1-dehydrogenase (P11413 whole entry): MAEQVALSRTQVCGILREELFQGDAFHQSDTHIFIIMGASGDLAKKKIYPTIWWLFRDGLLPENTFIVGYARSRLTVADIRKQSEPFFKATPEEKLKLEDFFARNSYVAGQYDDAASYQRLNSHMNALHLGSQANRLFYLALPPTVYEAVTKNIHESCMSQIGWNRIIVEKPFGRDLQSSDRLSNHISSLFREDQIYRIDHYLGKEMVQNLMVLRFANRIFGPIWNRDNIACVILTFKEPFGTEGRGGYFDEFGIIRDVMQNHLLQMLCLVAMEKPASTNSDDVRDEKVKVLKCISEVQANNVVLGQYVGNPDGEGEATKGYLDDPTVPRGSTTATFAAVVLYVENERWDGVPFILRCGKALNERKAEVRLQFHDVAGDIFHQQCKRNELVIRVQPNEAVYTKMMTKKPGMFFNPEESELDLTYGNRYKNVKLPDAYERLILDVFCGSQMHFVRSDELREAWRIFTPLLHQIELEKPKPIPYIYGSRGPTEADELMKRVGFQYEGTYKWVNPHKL
# Chain of Cytochrome P450 2C19 (P33261 whole entry): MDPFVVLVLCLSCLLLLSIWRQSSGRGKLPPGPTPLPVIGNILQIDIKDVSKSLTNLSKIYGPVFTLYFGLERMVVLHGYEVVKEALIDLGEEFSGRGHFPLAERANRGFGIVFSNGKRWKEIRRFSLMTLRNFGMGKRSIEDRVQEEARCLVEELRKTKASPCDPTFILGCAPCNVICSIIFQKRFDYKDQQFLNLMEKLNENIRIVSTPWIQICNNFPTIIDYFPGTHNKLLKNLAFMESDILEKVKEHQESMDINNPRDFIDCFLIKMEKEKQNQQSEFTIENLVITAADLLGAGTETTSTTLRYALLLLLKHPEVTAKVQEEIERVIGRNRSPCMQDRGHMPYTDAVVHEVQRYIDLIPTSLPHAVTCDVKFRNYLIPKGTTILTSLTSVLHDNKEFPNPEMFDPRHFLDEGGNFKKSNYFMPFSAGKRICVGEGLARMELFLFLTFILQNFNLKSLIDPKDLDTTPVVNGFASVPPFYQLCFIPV
smiles,measurement,setting,value
Cn1c(=O)c2cc(S(=O)(=O)NCCC(=O)Nc3ccc(Cl)cc3)ccc2n(C)c1=O,AC50,[1],inconclusive
C[C@H]1CC[C@H]2C(=O)N[C@H](Cc3ccccc3)C(=O)N2[C@@H]1c1ccccc1,AC50,[2],3.98 µM (inconclusive)
same,AC50,[1],inconclusive
Cc1cc(NC(=O)c2cnn3cccnc23)nn1CC(=O)Nc1cccnc1,EC50,[3],4.22 µM (active)
CC1=CN2C(=N)/C(=C/c3cc(Cl)c(O)c(Cl)c3)C(=O)N=C2S1,IC50,[4],42 µM (active)
COc1ccc(S(=O)(=O)N2CCCC2C(=O)Nc2nnc(-c3cccnc3)s2)cc1 (stereo unspecified),IC50,[5],> 100 µM (inactive)
O=C(NCCCN1CCN(Cc2ccccc2)CC1)C1CCN(c2nnc(-n3cccc3)s2)CC1,IC50,[5],62.8 µM (inactive)
OCCC1CN(Cc2ccccc2-c2ccco2)CCN1Cc1ccccc1 (stereo unspecified),EC50,[3],5.31 µM (active)
CCOC(=O)C1(CC2CC2)CCN(Cc2ccc3cccc(F)c3n2)CC1,EC50,[6],0.841 µM (active)
same,EC50,[3],2.66 µM (active)
O=C(N/C(=C/c1ccco1)C(=O)N1CCCCCC1)c1cccs1,AC50,[2],3.98 µM (inconclusive)
same,AC50,[1],inconclusive
same,AC50,[7],17.8 µM (inconclusive)
Cc1ccc(S(=O)(=O)NC2=NC(=O)/C(=C\c3cc(Br)cc(Br)c3O)S2)cc1,EC50,[8],9.99 µM (active)
same,EC50,[9],> 38 µM (not active)
same,AC50,[10],6.67 µM (active)
same,EC50,[3],10.6 µM (active)
O=C(CSc1nc2cc(Cl)ccc2s1)c1ccco1,IC50,[11],> 80 µM (inactive)
O=C(O)CCc1ccc(-c2cccs2)n1CCC(=O)O,IC50,[5],77 µM (inactive)
Cc1ccc(C(=O)Nc2nnc(S(=O)(=O)N3CCC(C)CC3)s2)cc1,IC50,[11],> 80 µM (inactive)
O=C(Nc1ccccc1)N1CC2(CCN(C(=O)c3cc(C(F)(F)F)cc(C(F)(F)F)c3)CC2)C1,AC50,[1],inconclusive
Cc1cccc(OCCOCCN2CCNCC2)c1C,EC50,[3],1.19 µM (active)
FC(F)(F)c1cnc(Nc2ccc(N3CCOCC3)cc2)c(Cl)c1,IC50,[5],76.3 µM (inactive)
O=C(N/N=C/c1cc(Cl)ccc1O)c1ccccc1Br,EC50,[12],14.7 µM (active)
same,IC50,[4],30.8 µM (active)
same,AC50,[13],2.29 µM (active)
same,EC50,[14],> 350 µM (not active)
COc1cc(/C=N/NC(=O)[C@H](Cc2c[nH]c3ccccc23)NC(=O)OCC(C)C)cc([N+](=O)[O-])c1O,IC50,[4],12.2 µM (active)
O=C(Nc1ccccc1C(=O)N/N=C/c1ccco1)c1ccccc1Cl,IC50,[11],> 80 µM (inactive)
Oc1ccc2oc3c(c2c1)CCCC3,AC50,[1],inconclusive
same,AC50,[15],22.4 µM (inconclusive)
